Data: ChEMBL document CHEMBL1140783, “Design and synthesis of 4-quinolinone 2-carboxamides as calpain inhibitors” (Bioorg Med Chem Lett, 2008)

Target: T1, Calpain-1 catalytic subunit (Homo sapiens, UniProt P07384)
T1 sequence (P07384 whole entry): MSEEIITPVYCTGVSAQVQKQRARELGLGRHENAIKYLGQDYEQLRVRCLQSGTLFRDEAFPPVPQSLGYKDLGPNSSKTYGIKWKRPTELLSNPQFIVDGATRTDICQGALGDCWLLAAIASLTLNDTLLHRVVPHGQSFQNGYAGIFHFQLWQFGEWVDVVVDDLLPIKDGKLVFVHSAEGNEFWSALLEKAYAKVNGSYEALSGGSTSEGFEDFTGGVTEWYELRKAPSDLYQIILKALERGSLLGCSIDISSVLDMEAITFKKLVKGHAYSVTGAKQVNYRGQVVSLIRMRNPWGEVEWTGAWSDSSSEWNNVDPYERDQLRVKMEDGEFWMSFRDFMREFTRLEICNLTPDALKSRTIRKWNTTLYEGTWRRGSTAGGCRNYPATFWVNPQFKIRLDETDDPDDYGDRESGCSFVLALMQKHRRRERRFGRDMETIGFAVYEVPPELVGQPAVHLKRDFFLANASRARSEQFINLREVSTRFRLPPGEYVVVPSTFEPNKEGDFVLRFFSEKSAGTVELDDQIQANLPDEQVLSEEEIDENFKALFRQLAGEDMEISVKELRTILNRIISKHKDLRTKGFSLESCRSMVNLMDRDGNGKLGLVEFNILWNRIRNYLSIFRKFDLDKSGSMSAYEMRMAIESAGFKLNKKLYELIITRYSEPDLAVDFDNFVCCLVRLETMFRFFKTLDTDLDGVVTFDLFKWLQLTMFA
Test: Inhibition of human mu-calpain

IC50	SMILES
0.04 µM	Cc1c(C(=O)N[C@@H](Cc2ccccc2)C(=O)C(N)=O)oc2ccccc2c1=O
5.01 µM	Cc1c(C(=O)N[C@@H](Cc2ccccc2)C(=O)C(=O)NCc2ccccc2)[nH]c2ccccc2c1=O
1.78 µM	COc1ccc(CNC(=O)C(=O)[C@H](Cc2ccccc2)NC(=O)c2[nH]c3ccccc3c(=O)c2C)cc1OC
5.63 µM	Cc1c(C(=O)N[C@@H](Cc2ccccc2)C(=O)C(=O)NCc2ccc(F)cc2)[nH]c2ccccc2c1=O
7.72 µM	Cc1c(C(=O)N[C@@H](Cc2ccccc2)C(=O)C(=O)NCc2ccccn2)nc2ccccc2c1O
0.73 µM	COc1ccc(CCNC(=O)C(=O)[C@H](Cc2ccccc2)NC(=O)c2[nH]c3ccccc3c(=O)c2C)cc1
6.28 µM	Cc1c(C(=O)N[C@@H](Cc2ccccc2)C(=O)C(=O)NCCc2ccccn2)[nH]c2ccccc2c1=O
0.71 µM	Cc1c(C(=O)N[C@@H](Cc2ccccc2)C(=O)C(N)=O)nc2ccccc2c1O
8.62 µM	CNC(=O)C(=O)[C@H](Cc1ccccc1)NC(=O)c1[nH]c2ccccc2c(=O)c1C
40.2 µM	CCNC(=O)C(=O)[C@H](Cc1ccccc1)NC(=O)c1nc2ccccc2c(O)c1C
3.81 µM	COc1ccc(CNC(=O)C(=O)[C@H](Cc2ccccc2)NC(=O)c2nc3ccccc3c(O)c2C)cc1
3.71 µM	Cc1c(C(=O)N[C@@H](Cc2ccccc2)C(=O)C(=O)NCCc2ccccc2)nc2ccccc2c1O
> 50 µM	Cc1c(C(=O)N[C@@H](Cc2ccccc2)C(=O)C(=O)NC(C)C)nc2ccccc2c1O
